“And” between values parts separate entries of the source, which are not always exact repeats. Identical values can stand only once.
How the values were obtained:
[1] = test system: LNCap cells; experiment: Ternary complex formation of ARM, antibody and target cells (flow cytometry); type: cell-based, human; details: 20 ug/ml rabbit anti-DNP Alexa 488, 4 C 30 min, mean fluorescence
Protocol: Various technologies are suitable for assessing complex formation. One example such assay was described below. Those skilled in the art appreciate that one or more parameters and/or conditions may be adjusted and other assays/reagents/conditions, etc., can also be utilized.
Adherent cells (LNCap, CRL-1740, for example results below) were harvested using Accumax (Sigma-Aldrich A7089-100 ml). Compounds were diluted in DMSO (MP 191418) to 1000× the starting concentration used in the assay into a 96 well polypropylene plate (Corning 3357). They were then serially diluted in ½ log increments to generate 8-12 concentrations in DMSO (assay dependent). These DMSO stocks were then step diluted 1/10 into PBS (VWR Cat. #20012043). The step diluted compound range was then added into the polypropylene assay plate 1/100 the volume of the assay volume. The cells used for the assay were counted and centrifuged and resuspended at a concentration of 100,000 cells per 200 ul in Flow buffer: 1% BSA (American Bio AB01088-00100); 0.5 mM EDTA (VWR 45001-122); PBS (VWR Cat. #20012043) with 20 ug/ml rabbit anti-DNP Alexa 488 (Thermo Fisher Scientific A11097). The cells were then added into the polypropylene plate with the step diluted compounds and incubated at 4 C 30 min. At the end of the incubation, the cells were centrifuged and washed 2× with Flow buffer containing 0.5% Tween 20 (BP337-500). Samples were analyzed on a BD FacsCelesta. Mean fluorescence was analyzed using Graphpad Prism and curves were fit using log (inhibitor) vs. response-Variable slope (four parameters).

[2] = test system: LNCaP target cells and reporter cells with CD16a-158V/V variant; experiment: ADCC reporter assay; type: cell-based, human
Protocol: In one example, LNCaP cells (human prostate cancer derived, ATCC: CRL-1740) were detached and re-suspended in 1% BSA in RPMI. Cell solution was filtered to remove cell aggregate (polystyrene tube with cell strainer, Corning: 352235) before being counted (Life Technologies Countless II cell counter) and plated (10,000 cells in 25 μL/well; Corning plates: 3917). The plated was centrifuged (5 min, 300×g) and the compound solutions (25 μL/well) were added immediately after. The antibody solutions (25 μL/well, IgG1 FC-Thermo Fisher: 10702HNAH5; Dintrophenyl-KLH polyclonal antibody-Thermo Fisher: A-6430) were added following a 45 min incubation at 37° C. The plate was then incubated with the antibody solution for 45 min to allow for cell-ARM-antibody ternary complex formation before the addition of the effector cells (60 K in 25 μL/well, ADCC reporter cells—Promega kit: G7018). The plate was centrifuged (5 min, 300×g) and effector cells were incubated for an 5 h at 37° C. Following the induction period the plate was equilibrated to 25° C. followed the addition of the luciferase substrate (75 μL/well, 1 vial in 10 mL of Bio-Glo assay buffer, Promega kit: G7018). The plate was then centrifuged (5 min, 300×g) and the luminescence was measured (Biotek Synergy H1 microplate reader).
An example set of data are present below:
LNCaP target cells and reporter cells with CD16a-158V/V variant

[3] = test system: CIML NK cells; experiment: CIML NK cell fratricide assay; type: cell-based; details: CIML NK cells; 3 μg/ml or 20.1 nM; 2 hours post-incubation
Protocol: (§1) PBMC isolation: Leukopheresis product from a donor with body mass index (BMI) between 19-25, under 50 years old, not on immuno-suppressive drugs for at least 2 weeks with an estimated PBMC cell count of >10^10 was obtained from Key Biologics (subject ID 20982200) and transported at ambient temperature. Leukopheresis bag was wiped down with 70% EtOH, a small slit was made and contents were pipetted off into tubes. Leukopak contents were diluted 1:1 with PBS without Ca++/Mg++ and 20 ml of this mixture was layered on top of 25 mL of Ficoll. Tubes were then centrifuged at 400 g for 30 minutes without brakes. PBMCs were harvested from the interface into separate tubes, and tubes were filled to 50 mL with PBS. Cells were centrifuged for 10 min at 120 g to get rid of platelets. Supernatant was poured off and cells were re-suspended in RPMI 10% FBS at a concentration of 7-10×10^6 cells/ml. Cells were cultured overnight at 37C in a 5% CO2 atmosphere until NK cell isolation.
(§2) NK cell isolation: PBMC were centrifuged at 400 g for 10 min and re-suspended in EasySep buffer. NK cells were isolated using NK cell isolation kits from STEMCELL Technologies according to kit's manufacturers' instructions. NK cell purity and phenotype was assessed by trypan Blue and flow cytometry using the following antibody cocktail: anti-CD56PE, CD3 APC, and viability was determined using staining with Trypan Blue exclusion dye, and by flow cytometry using Near Infra-Red Fixable viability dye (Thermo Fisher).
CIML NK cell generation: Isolated NK cells were re-suspended at 2×10^6 cells/ml in XVIVO 10% Human Serum and the following concentrations IL-15 (50 ng/ml), IL-12 (10 ng/ml), IL-18(50 ng/ml) for 12 to 18 hrs. […]
(§3) NK cell fratricide (death directed at NK cells in the same culture) was assessed by flow cytometry following a 2 hr incubation with the CD38 ARM at indicated concentrations in the presence or absence of 500 μg/ml intravenous immune globulin (IVIG). […]

[4] = test system: non-CIML NK cells; experiment: NK cell fratricide assay, non-CIML control NK cells; type: cell-based; details: daratumumab treatment, 2 hr
Protocol: as §1
as §2, with “Fisher). […]” for “Fisher).”
Purity and viability of NK cells and CIML NK cells: Among other things, the present disclosure provides highly pure and viable NK cell populations following isolation from PBMC. […] After an overnight incubation, purity and viability were assessed in the cultured cell populations. […]
as §3

## CC(C)C[C@@H]1NC(=O)[C@H](Cc2c[nH]cn2)NC(=O)[C@H](Cc2c[nH]c3ccccc23)NC(=O)[C@H](C)NC(=O)[C@@H](NC(=O)[C@H](CC(=O)O)NC(=O)CCOCCOCCOCCOCCOCCOCCOCCOCc2cn(CCCC[C@H](NC(=O)N[C@@H](CCC(=O)O)C(=O)O)C(=O)O)nn2)CSSC[C@@H](C(=O)N[C@H](C(=O)O)[C@@H](C)O)NC(=O)[C@H](Cc2c[nH]c3ccccc23)NC(=O)[C@H](C(C)C)NC(=O)[C@H](CC(C)C)NC(=O)[C@H](CCC(=O)O)NC(=O)CNC1=O [Compound I-11]
[1]
  EC50: 6.6 nM
[2]; I-11 3.2 nM, IgG1 FC (20 nM)
  Luminescence (background substracted): 165.5 and 123.5
[2]; I-11 3.2 nM, IgG1 FC (200 nM)
  Luminescence (background substracted): 172 and 189
[2]; I-11 3.2 nM, anti-DNP (20 ug/mL)
  Luminescence (background substracted): 128.5 and 86.5
[2]; I-11 16 nM, IgG1 FC (20 nM)
  Luminescence (background substracted): 667.5 and 621.5
[2]; I-11 16 nM, IgG1 FC (200 nM)
  Luminescence (background substracted): 1216 and 1040
[2]; I-11 16 nM, anti-DNP (20 ug/mL)
  Luminescence (background substracted): 934.5 and 855.5
[2]; I-11 80 nM, IgG1 FC (20 nM)
  Luminescence (background substracted): 1251.5 and 1037.5
[2]; I-11 80 nM, IgG1 FC (200 nM)
  Luminescence (background substracted): 1708 and 1823
[2]; I-11 80 nM, anti-DNP (20 ug/mL)
  Luminescence (background substracted): 1635.5 and 1605.5
[2]; I-11 400 nM, IgG1 FC (20 nM)
  Luminescence (background substracted): 797.5 and 679.5
[2]; I-11 400 nM, IgG1 FC (200 nM)
  Luminescence (background substracted): 1827 and 1494
[2]; I-11 400 nM, anti-DNP (20 ug/mL)
  Luminescence (background substracted): 1842.5 and 1696.5
[2]; I-11 2000 nM, IgG1 FC (20 nM)
  Luminescence (background substracted): 151.5 and 163.5
[2]; I-11 2000 nM, IgG1 FC (200 nM)
  Luminescence (background substracted): 1372 and 1118
[2]; I-11 2000 nM, anti-DNP (20 ug/mL)
  Luminescence (background substracted): 1374.5 and 1253.5

## CC(C)C[C@@H]1NC(=O)[C@H](Cc2c[nH]cn2)NC(=O)[C@H](Cc2c[nH]c3ccccc23)NC(=O)[C@H](C)NC(=O)[C@@H](NC(=O)[C@@H](N)CC(=O)O)CSSC[C@@H](C(=O)N[C@H](C(=O)NCCOCCOCCOCCOCCOCCOCCOCCOCc2cn(CCCC[C@H](NC(=O)N[C@@H](CCC(=O)O)C(=O)O)C(=O)O)nn2)[C@@H](C)O)NC(=O)[C@H](Cc2c[nH]c3ccccc23)NC(=O)[C@H](C(C)C)NC(=O)[C@H](CC(C)C)NC(=O)[C@H](CCC(=O)O)NC(=O)CNC1=O [Compound I-16]
[1]
  EC50: 7.4 nM

## CC(C)C[C@@H]1NC(=O)[C@H](Cc2c[nH]cn2)NC(=O)[C@H](Cc2c[nH]c3ccccc23)NC(=O)[C@H](C)NC(=O)[C@@H](NC(=O)[C@H](CC(=O)O)NC(=O)CCOCCOCCOCCOCCOCCOCc2cn(CCCC[C@H](NC(=O)N[C@@H](CCC(=O)O)C(=O)O)C(=O)O)nn2)CSSC[C@@H](C(=O)N[C@H](C(=O)O)[C@@H](C)O)NC(=O)[C@H](Cc2c[nH]c3ccccc23)NC(=O)[C@H](C(C)C)NC(=O)[C@H](CC(C)C)NC(=O)[C@H](CCC(=O)O)NC(=O)CNC1=O [Compound I-33]
[1]
  EC50: 3 nM

## CC(C)C[C@@H]1NC(=O)[C@H](Cc2c[nH]cn2)NC(=O)[C@H](Cc2c[nH]c3ccccc23)NC(=O)[C@H](C)NC(=O)[C@@H](NC(=O)[C@H](CC(=O)O)NC(=O)CCOCCOCCOCCOCCOCCOCCOCCOCc2cn(CCCC[C@H](NC(=O)N[C@@H](CCC(=O)O)C(=O)O)C(=O)O)nn2)CSSC[C@@H](C(=O)N[C@H](C(=O)O)[C@@H](C)O)NC(=O)[C@H](Cc2c[nH]c3ccccc23)NC(=O)[C@H](C(C)C)NC(=O)[C@H](CC(C)C)NC(=O)[C@H](CCC(=O)O)NC(=O)CNC1=O [Compound I-34]
[1]
  EC50: 8.7 nM

## daratumumab [reference compound]
[3]
  increase in the percentage of dead NK cells: 4%
[4]
  total increase in dead NK cells over DMSO treated control: 5.6%

— patent publication US12491246B2, “Combination therapy of arms and natural killer cells” (KLEO PHARMACEUTICALS, INC., priority 2018, dated 2025)
